In this assay the target is T1, viral kinase pUL-97 (Human cytomegalovirus, UniProt P16788).
T1 construct: The pUL-97 gene was cloned into a baculovirus vector; GST (glutathione S-transferase) (N); made in house; host or cells: Sf9 insect cells, baculovirus
The experiment in a line: UL97 kinase assay on Immobilon plate. It is filed as biochemical. To be noted: inhibition of UL 97 kinase activity, read-out: Activity Class [A, B, C]. In outline:
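GST-pUL97 from baculovirus-infected Sf9 cells phosphorylated myelin basic protein with ATP (3 μM in the added assay buffer) and γ-[33P]ATP in Tris-HCl pH 7.5 buffer with MnCl2 and DTT. Reaction ran 1 h at 30 °C with graded compound concentrations and was stopped with EDTA. 33P incorporation was measured by scintillation after filter capture and phosphoric acid washes.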

[1] abbreviates: class by IC50 / % inhibition at 10 μM or 100 μM.
Where [2] appears, read: class by IC50 / % inhibition at 10 or 100 μM.

Like-named read-outs stand apart in the source and are kept apart here.

T1 sequence (P16788 whole entry): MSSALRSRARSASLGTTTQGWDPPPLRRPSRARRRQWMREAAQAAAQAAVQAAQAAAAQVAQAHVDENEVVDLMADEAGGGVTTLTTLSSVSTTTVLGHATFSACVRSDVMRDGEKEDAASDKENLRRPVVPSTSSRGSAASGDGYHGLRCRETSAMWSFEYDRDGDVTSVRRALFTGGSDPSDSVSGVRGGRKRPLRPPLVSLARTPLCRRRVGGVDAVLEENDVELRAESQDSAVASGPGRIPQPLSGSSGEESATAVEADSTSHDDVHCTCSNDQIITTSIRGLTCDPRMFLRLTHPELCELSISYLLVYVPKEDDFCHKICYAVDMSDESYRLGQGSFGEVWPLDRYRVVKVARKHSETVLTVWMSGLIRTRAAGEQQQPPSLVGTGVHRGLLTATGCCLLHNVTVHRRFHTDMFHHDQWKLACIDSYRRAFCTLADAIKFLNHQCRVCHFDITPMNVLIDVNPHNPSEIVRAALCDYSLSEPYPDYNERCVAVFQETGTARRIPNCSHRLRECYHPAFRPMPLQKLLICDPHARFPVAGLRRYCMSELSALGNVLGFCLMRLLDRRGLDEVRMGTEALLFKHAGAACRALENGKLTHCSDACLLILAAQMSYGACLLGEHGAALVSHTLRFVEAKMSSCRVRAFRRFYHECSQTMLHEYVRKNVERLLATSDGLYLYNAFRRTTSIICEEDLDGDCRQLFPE

As to `Cc1ccc(-c2cncc(N3CCN(c4ccccc4)CC3)n2)cc1` [compound 245, 4-Phenyl-6′-p-tolyl-3,4,5,6-tetrahydro-2H-[1,2′]bipyrazinyl], the IC50 under setting [1] was in the range of 1 to 10 µM. On the same count and under the same terms, under `COc1cccc(-c2cncc(N3CCN(c4ccc(Cl)cc4)CC3)n2)c1` [compound 302, 4-(4-Chloro-phenyl)-6′-(3-methoxy-phenyl)-3,4,5,6-tetrahydro-2H-[1,2′]bipyrazinyl] stands 1 to 10 µM; under `Cc1ccc(-c2cncc(N3CCN(c4ccncc4)CC3)n2)cc1` [compound 220, 4-Pyridin-4-yl-6′-p-tolyl-3,4,5,6-tetrahydro-2H-[1,2′]bipyrazinyl], 1 to 10 µM. For `OCc1ccc(-c2cncc(N3CCN(c4ccccc4F)CC3)n2)cc1` [compound 125, {4-[4-(2-Fluoro-phenyl)-3,4,5,6-tetrahydro-2H-[1,2′]bipyrazinyl-6′-yl]-phenyl}-methanol], the IC50 under setting [2] is 1 to 10 µM. With `c1ccc2cc(-c3cncc(N4CCN(CCN5CCCC5)CC4)n3)ccc2c1` [compound 17, 6′-Naphthalen-2-yl-4-(2-pyrrolidin-1-yl-ethyl)-3,4,5,6-tetrahydro-2H-[1,2′]bipyrazinyl], the IC50 under setting [2] was < 1 µM. `CC(=O)c1ccc(N2CCN(c3cncc(-c4cccc(F)c4)n3)CC2)cc1` [compound 214, 1-{4-[6′-(3-Fluoro-phenyl)-2,3,5,6-tetrahydro-[1,2′]bipyrazinyl-4-yl]-phenyl}-ethanone]: under setting [1], the IC50 was 10 to 100 µM. `Cc1ccc(N2CCN(c3cncc(-c4cccc5ccccc45)n3)CC2)cc1` [compound 230, 6′-Naphthalen-1-yl-4-p-tolyl-3,4,5,6-tetrahydro-2H-[1,2′]bipyrazinyl]: the IC50 under setting [1] was 10 to 100 µM. As for `Clc1cccc(N2CCN(c3cncc(-c4ccccc4)n3)CC2)c1` [compound 97, 4-(3-Chloro-phenyl)-6′-phenyl-3,4,5,6-tetrahydro-2H-[1,2′]bipyrazinyl], under setting [2], the IC50 lay within 1 to 10 µM.

Turning to `COc1cccc(-c2cncc(N3CCN(c4cccc(Cl)c4)CC3)n2)c1` [compound 98, 4-(3-Chloro-phenyl)-6′-(3-methoxy-phenyl)-3,4,5,6-tetrahydro-2H-[1,2′]bipyrazinyl], under setting [2], the IC50 fell in the range of 1 to 10 µM.

Take `Cc1cccc(-c2cncc(N3CCN(c4cccc(C(F)(F)F)c4)CC3)n2)c1C` [compound 156, 6′-(2,3-Dimethyl-phenyl)-4-(3-trifluoromethyl-phenyl)-3,4,5,6-tetrahydro-2H-[1,2′]bipyrazinyl]: the IC50 under setting [2] fell in the range of 10 to 100 µM. Take `CC(=O)c1cccc(-c2cncc(N3CCN(c4ccccc4)CC3)n2)c1` [compound 112, 1-[3-(4-Phenyl-3,4,5,6-tetrahydro-2H-[1,2′]bipyrazinyl-6′-yl)-phenyl]-ethanone]: under setting [2], the IC50 fell in the range of 1 to 10 µM. The same measure, in the same setting: under `FC(F)(F)c1cc(-c2cncc(N3CCN(c4ccncc4)CC3)n2)cc(C(F)(F)F)c1` [compound 164, 6′-(3,5-Bis-trifluoromethyl-phenyl)-4-pyridin-4-yl-3,4,5,6-tetrahydro-2H-[1,2′]bipyrazinyl] stands 10 to 100 µM; under `FC(F)(F)c1cccc(-c2cncc(N3CCN(c4ccncc4)CC3)n2)c1` [compound 32, 4-Pyridin-4-yl-6′-(3-trifluoromethyl-phenyl)-3,4,5,6-tetrahydro-2H-[1,2′]bipyrazinyl], < 1 µM. Take `Cc1ccc(-c2cncc(N3CCN(c4cnccn4)CC3)n2)cc1` [compound 330, 6-p-Tolyl-2′,3′,5′,6′-tetrahydro-[2,1′;4′,2″]terpyrazine]: the IC50 under setting [1] is 1 to 10 µM.

Consider `COc1ccc(OC)c(-c2cncc(N3CCN(c4ccc(F)cc4F)CC3)n2)c1` [compound 144, 4-(2,4-Difluoro-phenyl)-6′-(2,5-dimethoxy-phenyl)-3,4,5,6-tetrahydro-2H-[1,2′]bipyrazinyl], for which the IC50 under setting [2] lay in the range of 10 to 100 µM. Still for that read-out and setting: under `Fc1ccccc1N1CCN(c2cncc(-c3ccoc3)n2)CC1` [compound 126, 4-(2-Fluoro-phenyl)-6′-furan-3-yl-3,4,5,6-tetrahydro-2H-[1,2′]bipyrazinyl] stands 1 to 10 µM. `CC(=O)c1ccc(N2CCN(c3cncc(-c4ccccc4Oc4ccccc4)n3)CC2)cc1` [compound 215, 1-{4-[6′-(2-Phenoxy-phenyl)-2,3,5,6-tetrahydro-[1,2′]bipyrazinyl-4-yl]-phenyl}-ethanone]: the IC50 under setting [1] lay within 10 to 100 µM.

Consider `CCOc1ccc(-c2cncc(N3CCN(c4ccc(C)cc4)CC3)n2)cc1` [compound 266, 6′-(4-Ethoxy-phenyl)-4-p-tolyl-3,4,5,6-tetrahydro-2H-[1,2′]bipyrazinyl], for which, under setting [1], the IC50 was 10 to 100 µM. The same measure, in the same setting: as for `COc1ccccc1N1CCN(c2cncc(-c3csc4ccccc34)n2)CC1` [compound 243, 6′-Benzo[b]thiophen-3-yl-4-(2-methoxy-phenyl)-3,4,5,6-tetrahydro-2H-[1,2′]bipyrazinyl], the figure is 10 to 100 µM. Take `CC(=O)c1ccc(N2CCN(c3cncc(-c4ccc(C)cc4)n3)CC2)cc1` [compound 148, 1-[4-(6′-p-Tolyl-2,3,5,6-tetrahydro-[1,2′]bipyrazinyl-4-yl)-phenyl]-ethanone]: the IC50 under setting [2] is 1 to 10 µM.

With `c1ccc(N2CCN(c3cncc(-c4ccoc4)n3)CC2)cc1` [compound 118, 6′-Furan-3-yl-4-phenyl-3,4,5,6-tetrahydro-2H-[1,2′]bipyrazinyl], the IC50 under setting [2] was 1 to 10 µM. `c1ccc(C2CCN(c3cncc(-c4cccc5ccccc45)n3)CC2)cc1` [compound 318, 2-Naphthalen-1-yl-6-(4-phenyl-piperidin-1-yl)-pyrazine]: the IC50 under setting [1] was in the range of 10 to 100 µM. Turning to `CN(C)c1ccc(-c2cncc(N3CCN(c4cccc(Cl)c4)CC3)n2)cc1` [compound 182, {4-[4-(3-Chloro-phenyl)-3,4,5,6-tetrahydro-2H-[1,2′]bipyrazinyl-6′-yl]-phenyl}-dimethyl-amine], the IC50 under setting [2] fell in the range of 10 to 100 µM. Turning to `CC(=O)c1ccc(-c2cncc(N3CCC(c4ccccc4)CC3)n2)cc1` [compound 362], under setting [1], the IC50 is 1 to 10 µM.

With `Cc1cccc(N2CCN(c3cncc(-c4cc5ccccc5s4)n3)CC2C)c1` (stereo not drawn) [compound 300, 6′-Benzo[b]thiophen-2-yl-3-methyl-4-m-tolyl-3,4,5,6-tetrahydro-2H-[1,2′]bipyrazinyl], the IC50 under setting [1] is 10 to 100 µM.

Take `CCOc1ccc(-c2cncc(N3CCN(c4ccccc4)CC3)n2)cc1` [compound 121, 6′-(4-Ethoxy-phenyl)-4-phenyl-3,4,5,6-tetrahydro-2H-[1,2′]bipyrazinyl]: under setting [2], the IC50 lay within 1 to 10 µM.

For `CC(=O)c1ccc(-c2cncc(N3CCN(c4cccc(C)c4C)CC3)n2)cc1` [compound 298, 1-{4-[4-(2,3-Dimethyl-phenyl)-3,4,5,6-tetrahydro-2H-[1,2′]bipyrazinyl-6′-yl]-phenyl}-ethanone], the IC50 under setting [1] lay in the range of 10 to 100 µM. On to `Cc1cc(C)cc(-c2cncc(N3CCN(c4ccc(F)cc4)CC3)n2)c1` [compound 179, 6′-(3,5-Dimethyl-phenyl)-4-(4-fluoro-phenyl)-3,4,5,6-tetrahydro-2H-[1,2′]bipyrazinyl], for which the IC50 under setting [2] lay within 10 to 100 µM. With `O=C(c1ccco1)N1CCN(c2cncc(-c3cccc(CO)c3)n2)CC1` [compound 58, Furan-2-yl-[6′-(3-hydroxymethyl-phenyl)-2,3,5,6-tetrahydro-[1,2′]bipyrazinyl-4-yl]-methanone], the IC50 under setting [2] was in the range of 10 to 100 µM. With `COc1cccc(-c2cncc(N3CCN(c4ccccc4OC)CC3)n2)c1` [compound 105, 4-(2-Methoxy-phenyl)-6′-(3-methoxy-phenyl)-3,4,5,6-tetrahydro-2H-[1,2′]bipyrazinyl], the IC50 under setting [2] was 1 to 10 µM. On the same count and under the same terms, as for `Nc1ncc(-c2ccc3ccccc3c2)nc1N1CCN(c2ccncc2)CC1` [compound 73, 6′-Naphthalen-2-yl-4-pyridin-4-yl-3,4,5,6-tetrahydro-2H-[1,2′]bipyrazinyl-3′-ylamine], the figure is < 1 µM. Regarding `Cc1cccc(-c2cncc(N3CCN(c4ccccc4)CC3)n2)c1` [compound 244, 4-Phenyl-6′-m-tolyl-3,4,5,6-tetrahydro-2H-[1,2′]bipyrazinyl], under setting [1], the IC50 is 10 to 100 µM. In the case of `COc1ccc(N2CCN(c3cncc(-c4cccc(OC)c4)n3)CC2)cc1` [compound 294, 4-(4-Methoxy-phenyl)-6′-(3-methoxy-phenyl)-3,4,5,6-tetrahydro-2H-[1,2′]bipyrazinyl], under setting [1], the IC50 fell in the range of 10 to 100 µM. The same measure, in the same setting: under `Fc1ccc(-c2cncc(N3CCN(c4ccccn4)CC3)n2)cc1` [compound 305, 6′-(4-Fluoro-phenyl)-4-pyridin-2-yl-3,4,5,6-tetrahydro-2H-[1,2′]bipyrazinyl] stands 1 to 10 µM; under `CSc1ccc(-c2cncc(N3CCN(c4ccc(C)c(C)c4)CC3)n2)cc1` [compound 359, 4-(3,4-Dimethyl-phenyl)-6′-(4-methylsulfanyl-phenyl)-3,4,5,6-tetrahydro-2H-[1,2′]bipyrazinyl], 1 to 10 µM; under `CN(C)c1ccc(-c2cncc(N3CCC(c4ccccc4)CC3)n2)cc1` [compound 280, Dimethyl-{4-[6-(4-phenyl-piperidin-1-yl)-pyrazin-2-yl]-phenyl}-amine], 1 to 10 µM. `COc1ccccc1N1CCN(c2cncc(-c3ccc(N(C)C)cc3)n2)CC1` [compound 186, {4-[4-(2-Methoxy-phenyl)-3,4,5,6-tetrahydro-2H-[1,2′]bipyrazinyl-6′-yl]-phenyl}-dimethyl-amine]: the IC50 under setting [2] fell in the range of 10 to 100 µM.

Regarding `FC(F)(F)c1cc(-c2cncc(N3CCN(c4ccccc4)CC3)n2)cc(C(F)(F)F)c1` [compound 191, 6′-(3,5-Bis-trifluoromethyl-phenyl)-4-phenyl-3,4,5,6-tetrahydro-2H-[1,2′]bipyrazinyl], the IC50 under setting [2] fell in the range of 10 to 100 µM. On the same count and under the same terms, as for `N#Cc1ccccc1N1CCN(c2cncc(-c3ccc(F)c(Cl)c3)n2)CC1` [compound 62, 2-[6′-(3-Chloro-4-fluoro-phenyl)-2,3,5,6-tetrahydro-[1,2′]bipyrazinyl-4-yl]-benzonitrile], the figure is 1 to 10 µM.
